Series [1] concerns Male C57B16 mice. The series is described as follows: Tissue ICP-AES biodistribution of Mn. Format: in vivo. On the procedure: Tissue ICP-AES: Biodistribution of 5 was measured in tissues 15 and 90 min after injection of (1) 0.07 mmol/kg 5 plus 2.2 mmol/kg D-glucose, (2) 0.07 mmol/kg 5 plus saline, and (3) 0.035 mmol/kg MnCl plus 2.2 mmol/kg D-glucose into male C57B16 mice. The tissue weights were recorded and digested in aqua regia for 24 hours, the digested tissue was heated to 120° C. until evaporated and re-suspended in 0.5 M HCl. For ICP-AES, Mn, Fe, and Zn concentrations were obtained by comparing to a known metal standard.

A short description of series [2]: Relaxometry (T1 and T2 at 1.5 T). The class given is physicochemical. To be noted: 37° C. On the procedure: Relaxometry: Varying concentrations of 5 (0-1 mM) were incubated with 2 mM ZnCl2, and 0.6 mM human serum albumin (HSA) at 37° C. T1 and T2 measurements were obtained at 1.5 T using a Bruker relaxometer. T1 was obtained by an inversion recovery sequence (IR, first pulse=10 ms, TR=10 s, TI=10-2500 ms), and T2 by a Carr-Prucell-Meiboom-Gill (CPMG, TE/TR=5/10000 ms, NE=700).

Series [3] can be described thus: Clearance route and integrity by LC-MS of urine and bile. Format: in vivo.
Series [4] concerns Male C57B16 mice. The series is described as follows: In vivo T1-weighted MRI of glucose-stimulated zinc secretion. On the procedure: In Vivo MRI: Male C57B16 mice were imaged at 4.7 T and 9.4 T using Varian/Agilent scanners. Mice were anesthetized with 2-5% isofluorane/oxygen mixture and their body temperature was maintained at 37° C. using heated airflow. Two ge3d T1-weighted scans were obtained as a baseline (TE/TR=1.69/3.35 ms, Average=4, θ=20°). Mice then received 0.07 mmol/kg 5 i.v. plus 2.2 mmol/kg D-Glucose i.p. and sequential 3d T1-weighted scans were obtained for 90 minutes until clearance of the agent was evident. Images were analyzed using ImageJ, organs of interest were identified, and ROIs were measured and normalized to muscle ROIs within the same slice and time point. The change in MR signal intensity is reported as a percentage compared to pre-injection scans.

[5] abbreviates: 0.035 mmol/kg i.v. plus 2.2 mmol/kg D-glucose i.p.

For `[Cl][Mn][Cl]` [MnCl2, reference compound], in the series with Male C57B16 mice [1] (setting [5]), the “Mn accumulation in the heart” value is listed as “Accumulation in the heart”; the “excretion route (tissue biodistribution of Mn)” value was “excreted renally and more overwhelmingly via the hepatobiliary system”.
As for “Mn—N-(6-methyl)-(2-(bis(pyridin-2-ylmethyl)amino)ethyl)-nicotinamido-N,N′ N′-trans-1,2-cyclohexylenediamine-triacetate [Compound 5]”, the “longitudinal relaxivity r1” value came to 3.5 mM⁻¹ s⁻¹ in series [2] ("off" configuration (no Zn(II)/HSA)); 14.1 mM⁻¹ s⁻¹ in series [2] ("on" configuration bound to Zn^2+ and HSA (2 mM ZnCl2, 0.6 mM HSA)). For the same molecule, the “integrity during hepatobiliary clearance” value in series [3] (LC-MS of bile) was “degraded during hepatobiliary clearance”. For the same molecule, the “integrity after renal filtration” value in series [3] (LC-MS of urine) is recorded as “excreted as an intact complex after renal filtration”. Also, the “MRI signal enhancement in organs” value in the series on Male C57B16 mice [4] (0.07 mmol/kg i.v. plus D-glucose 2.2 mmol/kg i.p., 4 minutes post injection, 9.4 T) is “Enhancement in the pancreas, prostate, kidneys, and liver”; with Male C57B16 mice [4] (control, D-glucose not co-injected), “marginal enhancement in the prostate and pancreas”. For the same molecule, the “Mn accumulation in the heart” value with Male C57B16 mice [1] (0.07 mmol/kg i.v. plus 2.2 mmol/kg D-glucose i.p.) was “no accumulation in the heart”. The “Mn content in tissues (biodistribution)” value in the series with Male C57B16 mice [1] (15 minutes post-injection, 0.07 mmol/kg i.v. plus 2.2 mmol/kg D-glucose i.p.) was “found primarily in the kidneys, liver, pancreas, and prostate”; in the series with Male C57B16 mice [1] (90 minutes post-injection, 0.07 mmol/kg i.v. plus 2.2 mmol/kg D-glucose i.p.) it was “greatly diminished in kidney and liver tissues but accumulated in the spleen and in the prostate”.

Values taken from patent publication US11267832B2, “Mn(II)-based sensors to detect zinc in vivo with MRI” (The Board of Regents of the University of Texas System, priority 2018, dated 2022).
